From PubChem BioAssay (NCI)
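Following 48 hours of exposure in 96-well plates, responses at five concentrations were used to interpolate endpoints linearly. At the GI50, growth is halved. TGI: total growth inhibition.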

Test system: MDA-MB-468 breast
Assay: growth of human tumour cells (NCI), 48 h

Row | SMILES | GI50 [µM] | TGI [µM]
1 | O=c1ncc(I)cn1C1CC(O)C(CO)O1 (stereo unspecified) | 935 | 2980
2 | CC(=O)N1CCC(Nc2ncc3cc(Oc4ccc(F)cc4F)c(=O)n(C)c3n2)CC1 | > 25 | > 25
3 | COc1cc(/C=C/C(=O)c2ccccc2)cc(OC)c1OC | 2.3 | 8.32
4 | Cc1nc2cc(-c3nn(C(C)C)c4ncnc(N)c34)ccc2o1 | 0.00863 | 0.101
5 | COC(=O)/C=C1/SC(=Nc2ccc(F)cc2)N(CCc2c[nH]c3ccc(O)cc23)C1=O | 3.03 | 23.6
6 | Nc1c(C(=O)c2cccc(OC[C@@H](O)CO)c2)cnn1-c1ccc(F)cc1 | > 25 | > 25
7 | COc1cccc2c1O/C(=C\c1ncc([N+](=O)[O-])n1C)C2=O | 1.59 | 4.3
8 | CCN(CC)CC(O)CNc1c2ccc(Cl)cc2nc2ccc(OC)cc12 (stereo unspecified) | 0.666 | 2.18
9 | CC(=O)Oc1cc(C(C)C)c(OCCN(C)C)cc1C | > 100 | > 100
10 | COc1cc(/C=C2\C(=O)Nc3ccccc32)cc(OC)c1O | 1.57 | 7.67
11 | COc1cc(OC)c(/C=C/c2cc[n+](C)c3ccccc23)c(OC)c1 | 0.36 | 5.01
12 | CC1(C)CC[C@]2(C(=O)Nc3ccccn3)CC[C@]3(C)C(=CC[C@@H]4[C@@]5(C)C/C(=C/c6ccncc6)C(=O)C(C)(C)[C@@H]5CC[C@]43C)[C@@H]2C1 | 2.12 | > 100
13 | CC(=O)c1c(Nc2cccc(F)c2)[nH]c2c(Cl)cc(Cl)c(Cl)c2c1=O | 0.317 | 1.35
14 | Cc1oc2c(C(=O)N/N=C\c3ccc(O)cc3O)c[nH]c2c1C | 1.96 | 18.3
15 | COc1ccc(-c2ccc(-c3ccc(C(=N)N)c(F)c3)s2)cc1 | 0.373 | 1.21
16 | CCc1ccc(C(=O)/C=C/C23c4ccccc4C(c4ccccc42)C2C(=O)NC(=O)C23)cc1 (stereo unspecified) | 1.79 | 4.13
17 | CC(C)Oc1ccc(-c2nn([C@@H](C)c3oc4ccc(F)cc4c(=O)c3-c3cccc(F)c3)c3ncnc(N)c23)cc1F | 37.1 | > 100
18 | C#CC[C@@H]1C[C@]2(C)[C@H]3CC[C@@H]4[C@H]5C(C(=C)C)CC[C@]5(C(=O)NCCCCN)CC[C@@]4(C)[C@]3(C)CC[C@H]2C(C)(C)[C@H]1OC(C)=O (stereo partly specified) | 1.78 | 3.59
19 | O=C(OCC1OC(n2cc(C(F)(F)F)c(=O)[nH]c2=O)CC1OC(=O)c1ccc([N+](=O)[O-])cc1)c1ccc([N+](=O)[O-])cc1 (stereo unspecified) | 28 | > 100
20 | O=c1ccccc(-c2ccc(Br)cc2)c1O | 0.257 | 2.32
21 | [2H]c1nc(C)nc([2H])c1-c1cc(NC[C@@H](C)c2cccc3c(C(=O)NC)ccnc23)ncn1 | 56 | > 100
22 | CNCCCNc1nc2ccccc2c2c(=O)c3cc(F)ccc3sc12 | 1.18 | 2.6
23 | COc1ccc(C(=S)N(C)NC(=O)CC(=O)NN(C)C(=S)c2ccc(OC)cc2)cc1 | 48.7 | > 100
24 | O=C1/C=C/[C@@H](O)[C@@H]2C[C@@H](O)C[C@H]2/C=C/CCC[C@H](CCc2ccccc2)O1 | < 0.01 | 0.0251

Row | SMILES | GI50 [µM] | TGI [µM]
25 | Cc1ccc(C2=NN(c3ccc(S(C)(=O)=O)cc3)C(=O)CC2)cc1 | 1.23 | 4.86
26 | CN(C)CCONC(=O)C12CC3CC(CC(C3)C1)C2 | > 100 | > 100
27 | COc1cc(C2CC(c3cccc(Nc4ccncc4)c3)=NN2c2ccccc2)cc(OC)c1OC (stereo unspecified) | 1.49 | 2.95
28 | Cn1c(-c2ccncc2)c(-c2ccc(F)cc2)c2ncccc21 | > 22.7 | > 25
29 | COc1ccc(C2C=C(c3ccc(OC)c(OC)c3)N=C3SC=CN32)c(Br)c1 (stereo unspecified) | 1.88 | 3.91
30 | CCc1cccc2c3c(sc12)C(c1ccc(F)cc1)C(C#N)=C(/N=C/c1ccc(Cl)cc1)O3 (stereo unspecified) | 0.248 | 0.812
31 | Cc1cc(=O)n2nnc3c4ccccc4ccc3n12 | 1.75 | 4.82
32 | COc1ccc(C(=O)c2sc3nc4c(cc3c2N)CCCC4)cc1OC | 2.46 | 23.6
33 | O=C1C=CC2(O)OC/C(=C\c3ccccc3)C(O)=C2C1=O (stereo unspecified) | 1.62 | 3.23
34 | Cc1ccc(CN(C)c2ccc(CO)c(Cl)c2)cc1 | 0.0389 | 0.166
35 | C[CH2][Pb]([CH2]C)([CH2]C)[O]C(=O)COC | 0.201 | 0.71
36 | Clc1ccc(Cn2c(CN3CCCC3)nc3ccccc32)cc1 | 13.4 | 34.2
37 | c1ccc(-c2n(Cc3ccc4ccccc4c3)c3c4ccccc4c4ccccc4c3[n+]2Cc2ccc3ccccc3c2)cc1 | 0.23 | 0.845
38 | Nc1nc2cc(O)ccc2n2cc3c(F)cccc3c12 | 2.66 | > 100
39 | O=C(O)c1ccc(NCc2nc3cc(Cl)c(Cl)cc3[nH]2)cc1 | 62 | > 100
40 | Nc1c(C(=O)Nc2cccc(C(F)(F)F)c2)sc2nc3c(cc12)C(O)CCC3 (stereo unspecified) | 1.69 | > 62.1
41 | O=C(Nc1ccc(Cl)cc1)Nc1ccc(Cl)c(C(F)(F)F)c1 | 1.67 | 4.8
42 | CC(C)N(CCCNC(=O)Nc1ccc(C(C)(C)C)cc1)C[C@H]1O[C@@H](n2ccc3c(N)ncnc32)[C@H](O)[C@@H]1O | > 100 | > 100
43 | Cc1cc2cn3c4ccc(O)cc4nc(N)c3c2cc1C | 0.222 | 0.626
44 | COc1cc(-c2nn(-c3cccc(NC(=O)Nc4cccc(C(F)(F)F)c4)c3)cc2-c2ccncc2)ccc1Cl | 0.369 | 2.09
45 | O=C1OCC2=C1C(c1ccc3c(c1)OCO3)c1cc3c(cc1O2)OCO3 (stereo unspecified) | 0.938 | > 100
46 | Cc1cc(Cl)ccc1OCc1nn2c(CCCCc3nnc4sc(COc5ccc(Cl)cc5C)nn34)nnc2s1 | 8.42 | 81.2
47 | c1ccc(CC(Cc2ccccc2)C2=NCCCN2)cc1 | 2.92 | > 100
48 | COc1ccc(/C=C2\COc3ccc(O)c(O)c3C2=O)cc1 | 1.24 | 3.94
